# Laboratory results from paper PMC11111691, “Cystine-knot peptide inhibitors of HTRA1 bind to a cryptic pocket within the active site region” (Nature Communications, 2024).
# Positions of bridges follow the written chain, without caps; N, C: chain ends. Residues, ends and D or L forms follow the SMILES beside them.
# Tests used:
# [1] = biological target: T1, HTRA4^PD/PDZ-Y200A (Homo sapiens, UniProt P83105, Y200A); test: H2-OPT enzyme assay, chimeric HTRA4^PD/PDZ-Y200A; assay type: biochemical; conditions: 1 µM HTRA4^PD/PDZ-Y200A, 10 µM 3B3, H2-OPT; read-out: Inhibition (reduction of enzyme activity) of HTRA4^PD/PDZ-Y200A
# T1 construct: HTRA4 (HTRA4^PD/PDZ; G153-N476); made in house; host or cells: E. coli
# T1 sequence (P83105 153-476 Y200A): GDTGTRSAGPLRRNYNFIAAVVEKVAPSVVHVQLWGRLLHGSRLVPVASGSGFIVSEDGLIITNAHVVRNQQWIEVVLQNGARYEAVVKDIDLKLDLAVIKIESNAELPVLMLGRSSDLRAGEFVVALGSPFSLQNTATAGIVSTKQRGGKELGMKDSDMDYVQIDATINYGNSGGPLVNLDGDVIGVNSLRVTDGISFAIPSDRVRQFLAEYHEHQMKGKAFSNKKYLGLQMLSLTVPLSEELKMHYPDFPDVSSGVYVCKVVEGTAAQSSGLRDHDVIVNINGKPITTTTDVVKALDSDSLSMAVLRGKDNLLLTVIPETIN
# Description: The protease domains of human HTRA1 (HTRA1^PD; D161-K379) and mouse HTRA1 (mHTRA1^PD; D161-K379) contained an N-terminal His6 tag followed by a TEV protease cleavage sequence as described recently. The chimeric HTRA1^PD-A202Y was made by introducing an A202Y mutation to the human HTRA1^PD construct. […] The protease-PDZ domains of human HTRA3 (HTRA3^PD/PDZ; L130-M453) and HTRA4 (HTRA4^PD/PDZ; G153-N476) contained a C-terminal thrombin cleavage sequence followed by a His6 tag[44]. The chimeric HTRA4^PD/PDZ-Y200A was made by introducing a Y200A mutation to the HTRA4^PD/PDZ construct. These constructs were expressed in E. coli and purified as described[38],[44],[47]. […] The purity of the trimeric HTRA proteins after size exclusion chromatography was assessed by SDS-PAGE and LC/MS. […]
# Assays with the fluorescence-quenched synthetic substrate Mca-IRRVSYSFK(Dnp)K (H2-OPT)[38],[60] were carried out essentially as described. […] The kinetics of substrate cleavage was measured at 37 °C on a SpectraMax M5 microplate reader with excitation of 328 nm and emission of 393 nm. The determined initial rates of cleavage were expressed as percent of control (DMSO control) after subtracting the baseline rates (without enzyme). IC50 values were determined by Sigmoidal 4PL modeling of multiple data points from serial dilutions of CKPs using Prism 9 software (GraphPad). […]
# [2] = biological target: T2, HTRA2^PD/PDZ (Homo sapiens, UniProt O43464); test: H2-OPT selectivity assay, HTRA2; assay type: biochemical; conditions: 1 nM HTRA2^PD/PDZ, 2 µM CKP (0.5 mM 7mer-ABP), 5 µM H2-OPT
# T2 construct: Human HTRA2^PD/PDZ (A134-E458) was from R & D Systems; purchased R & D Systems 1458-HT-100
# T2 sequence (O43464 134-458): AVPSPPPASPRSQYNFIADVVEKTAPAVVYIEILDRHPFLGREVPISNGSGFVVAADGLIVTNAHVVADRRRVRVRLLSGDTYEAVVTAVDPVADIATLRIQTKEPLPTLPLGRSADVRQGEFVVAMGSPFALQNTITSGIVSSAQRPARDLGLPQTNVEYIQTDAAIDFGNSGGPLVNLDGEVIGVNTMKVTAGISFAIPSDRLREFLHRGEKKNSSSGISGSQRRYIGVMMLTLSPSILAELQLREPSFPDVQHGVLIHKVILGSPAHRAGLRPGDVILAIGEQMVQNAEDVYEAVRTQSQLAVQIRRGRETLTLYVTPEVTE
# Procedure: Assays with the fluorescence-quenched synthetic substrate Mca-IRRVSYSFK(Dnp)K (H2-OPT)[38],[60] were carried out essentially as described. CKP stock solutions in DMSO were diluted in TNC buffer (dilution series for IC50 determinations, or final concentration of 2 µM for selectivity assay or as indicated for HTRA1/4 mutants) and incubated with enzymes in 96-well black optical bottom plates for 60 min at 37 °C. For selectivity experiments we used the 7mer-ABP as inhibitor, which was incubated with the proteases for 15 min at 37 °C. A 10 mM stock solution of H2-OPT in DMSO was diluted with water, prewarmed at 37 °C and then added to the CKP-enzyme mixtures. The final concentrations in the reaction mixtures were: 1 nM HTRA1^FL, 3 nM HTRA1^PD/PDZ, 1 nM HTRA1^PD, 1 nM HTRA2^PD/PDZ, 3 nM HTRA3^FL, 60 nM HTRA3^PD/PDZ, 6 nM HTRA4^FL, 1 µM HTRA4^PD/PDZ, 1 nM mouse HTRA1^PD, 25 nM HTRA1^PD-A202Y, 1 µM HTRA4^PD/PDZ-Y200A, 0.5 mM 7mer-ABP, 5 µM H2-OPT, and 0.25% DMSO. The kinetics of substrate cleavage was measured at 37 °C on a SpectraMax M5 microplate reader with excitation of 328 nm and emission of 393 nm. The determined initial rates of cleavage were expressed as percent of control (DMSO control) after subtracting the baseline rates (without enzyme). IC50 values were determined by Sigmoidal 4PL modeling of multiple data points from serial dilutions of CKPs using Prism 9 software (GraphPad). […]
"Inhibition of HTRA2^PD/PDZ, H2-OPT (% of control) [2]",Compound,inhibition at 10 µM [1] [%]
–,"CC[C@H](C)[C@H](NC(=O)[C@@H]1CCCN1C(=O)[C@H](CC(=O)O)NC(=O)[C@H](C)NC(=O)[C@@H](N)Cc1c[nH]cn1)C(=O)N[C@H]1CSSC[C@@H]2NC(=O)[C@H](Cc3ccccc3)NC(=O)[C@H](Cc3c[nH]c4ccccc34)NC(=O)[C@H](C)NC(=O)CNC(=O)[C@H](CO)NC(=O)[C@@H]3CSSC[C@@H](C(=O)NCC(=O)N4CCC[C@H]4C(=O)N[C@@H](Cc4ccc(O)cc4)C(=O)N[C@H](C(=O)NCC(N)=O)C(C)C)NC(=O)[C@H](CO)NC(=O)[C@H](Cc4c[nH]c5ccccc45)NC(=O)[C@H]([C@@H](C)O)NC(=O)[C@H](C)NC(=O)[C@H](Cc4ccc(O)cc4)NC(=O)[C@H](Cc4ccc(O)cc4)NC(=O)[C@H](CSSC[C@H](NC(=O)[C@@H]4CCCN4C(=O)[C@H](CCCCN)NC(=O)[C@H](CC(N)=O)NC1=O)C(=O)N[C@@H](CCCCN)C(=O)N[C@@H]([C@@H](C)O)C(=O)N[C@@H](Cc1c[nH]cn1)C(=O)N[C@@H](CC(=O)O)C(=O)N[C@@H](CC(=O)O)C(=O)N3)NC(=O)[C@H](C)NC(=O)[C@H](CCC(N)=O)NC2=O [3B3] (H-HADPICNKPCKTHDDCSGAWFCQACYYATWSCGPYVG-NH2; disulfide 6-22, 10-25, 16-32)",57
significantly inhibited,DPMFKLV-phosphonate [7mer-ABP],–
